≈ marks a conversion by molar mass, not a printed value. Entries after “also recorded” stand apart in the source; their conditions may differ. Read-outs that look alike come from different tables or passages of the source. Each block holds one molecule with its values, some of them ahead of it.
Tests used:
[1] = tested on: ornithine decarboxylase (ODC); test: suppression of TPA induced ornithine decarboxylase (ODC) activity in mouse skin; assay type: in vivo; conditions: for % of Inhibition as Compared to Control: second table (60 min)
Procedure: In the ODC assay, either 13-cis-retinoic acid or trans-retinoic acid was employed. The following Table summarizes the result of the ODC assays.
Epidermus was separated, homogenized, and centrifuged at 30,000× g. Soluble epidermal ODC activity was assayed. The retinoids were evaluated in three independent experiments (3 groups of mice with 3 mice per group) and the results from the experiments were normalized (% inhibition) for comparison. […] Which standard is used appears to be relatively unimportant for determining activity in the assay, but the data presented in the Table identifies the standard for sake of clarity and accuracy of presentation. Thus, the presence of the heteroatom in these arotinoids has not eliminated biological activity. […] Consequently, the nature of the terminus group is also important.

[2] = tested on: HL-60 cells; test: induction of differentiation of human HL-60 promyelocytic cells (NBT reduction); assay type: cell-based; conditions: HL-60, 96 h, read-out: concentration of retinoid effective in achieving a half-maximal response (ED50)
Procedure: These mature cells, unlike the uninduced HL-60, produced superoxide anion when simulated with an appropriate agent, such as TPA. The ability of the individual cells to produce superoxide can be measured by incubating cells with the water-soluble yellow dye, nitroblue tetrazolium (NBT). NBT is reduced to a water-insoluble blue-black formazan by superoxide. This formazan precipitate is associated with those cells that produce superoxide. Thus, the percentage of cells in a population that produce superoxide (NBT-positive cells) can be enumerated under a light microscope.
After incubation for 4 days at 37° C. in a humidified atmosphere of 5% CO2 and air, the capacity of the cells to reduce NBT was determined. […] This cell suspension was mixed with an equal volume of phosphate buffered saline containing 1 mg of NBT/mL and […]. The reaction mixture was incubated at 37° C. for 25 minutes, and the reaction was terminated by cooling in an ice water bath. Cytospin slides were prepared from a portion of this reaction mixture and stained with Wright-Giemsa. A minimum of 200 cells were counted under light microscopy to determine the percentage of cells with cell-associated formazan.

[3] = tested on: RPMI-7951 (melanoma); test: Human Tumor Cell Line Bioassay (HTCL), RPMI-7951; assay type: cell-based; design: key to ED50 Values: NDT: No detectable toxicity; conditions: RPMI-7951, MTT, O.D. 50% of control; for IC50: Homo sapiens, read-out: ED50 Values
Procedure: (§1) The Human Tumor Cell Line Bioassay (HTCL) has been conducted in a manner similar to the procedure described by Alley and co-workers (Cancer Research 1988, 48, 589-601). A panel of 4 tumor cell lines were grown in microliter plates and various concentrations of the test compounds were added to the wells. After 4 days, the number of viable cells were measured in terms of production of formazin after incubation with MTT [3-(4,5-dimethylthiazol-2-yl)-2,5-diphenyltetrazolium bromide]. Formazin production is directly proportional to the viable cell number/well and can be measured spectrophotometrically after solubilization.
The cell lines used in the HTCL assay were A-549 (lung adenocarcinoma), HT-29 (colon adenocarcinoma), MCF-7 (breast adenocarcinoma), and RPMI-7951 (melanoma). With the exception of HT-29, these cells have been adopted to grow in B10 medium which consists of Eagle's Minimum Essential Medium supplemented with 1.5× the essential amino acids, 2× the non-essential amino acids, 1.5× vitamins, 1× L-glutamine, 10% calf bovine serum (CBS), and 1× antibiotic solution (PSF) consisting of 50 U/mL of penicillin, 50 ug/mL of streptomycin sulfate, and 50 ug/mL of amphotericin B. HT-29 cells were grown in McCoy's 5A medium supplemented with 10% CBS and 1× PSF. Stock cultures of cells were routinely grown in 25 cm^2 flasks (T-25) and passaged on a weekly basis. Cells were passaged by washing twice with phosphate buffered saline (PBS) and once with a 0.005% trypsin--0.01% EDTA solution. Trypsin-EDTA solution was added and the flask was allowed to incubate for 2-5 minutes until the cells were detached. After detaching from the flask, the cells were resuspended in their appropriate medium, counted on a Coulter Counter (ZBI), and an aliquot was transferred to new T-25 flasks. The remaining cells were used to set up the assay in 96 well microliter plates. Either 3,000 (HT-29, MCF-7) or 2,000 (A-549, RPMI-7951) cells were added to the wells in a 96-well microliter plate in 0.2 mL of medium (Day 1). On Day 2, the compounds were resuspended at 1 or 2 mg/mL in acetone, and the compounds were serially diluted 10 or 5 fold in PBS and 20 uL of each dilution starting at 100 or 200 ug/mL was added to 4 wells of the microliter plate. Doxyrubicin was used as a positive control compound. On Day 7, 20 uL of MTT (2 mg/mL) was added to each of the wells. The plates were then incubated at 37° C. for 4 hours. After incubation, the medium and MTT were removed by aspiration and 100 uL of DMSO was added to solubilize the formazin product. The plates were read on a Dynatech 700 plate reader at 540 nm, and the data were collected on an IBM PC. The data were graphed and the ED50 was determined from the graph.

[4] = tested on: HT-29 (colon adenocarcinoma); test: Human Tumor Cell Line Bioassay (HTCL), HT-29; assay type: cell-based; conditions: HT-29, MTT, O.D. 50% of control
Procedure: as §1
The cell lines used in the HTCL assay were A-549 (lung adenocarcinoma), HT-29 (colon adenocarcinoma), MCF-7 (breast adenocarcinoma), and RPMI-7951 (melanoma). […] After detaching from the flask, the cells were resuspended in their appropriate medium, counted on a Coulter Counter (ZBI), and an aliquot was transferred to new T-25 flasks. […] The plates were read on a Dynatech 700 plate reader at 540 nm, and the data were collected on an IBM PC. The data were graphed and the ED50 was determined from the graph.

[5] = retinoid dose 34 nmol + TPA, second table, acetone + TPA control 1.67
[6] = with trans-retinoic acid as the standard
[7] = incubation 4 days at 37° C., NBT-positive cells
[8] = retinoid dose 17 nmol + TPA, first table, acetone + TPA control 0.90
[9] = in comparison with 13-cis-retinoic acid as the standard, or among the tested compounds

- activity in the ODC assay in words [1, 6]: slightly less active than the standard
- EC50 [2, 7]: 200 nM
SMILES: CC(/C=C/C=C(\C)c1ccc2c(c1)C(C)(C)CCO2)=C\C(=O)O [(47), 7-[4,4-Dimethylchroman-6-yl]-3,7-dimethyl-2,4,6-heptatrienoic acid]
- % of Inhibition as Compared to Control ([1]; retinoid dose 34 nmol + TPA): 74%
- ODC Activity [1, 5]: 1.4 ± 0.2 nmol CO2 /60 min/mg protein

SMILES: CC1=C(/C=C/C(C)=C/C=C/C(C)=C\C(=O)O)C(C)(C)CCC1 [13-cis-retinoic acid, reference compound]
- ODC Activity [1, 8]: 0.1 ± 0.01 nmol CO2 /30 min/mg protein
- % of Inhibition as Compared to Control ([1]; retinoid dose 17 nmol + TPA): 92%
- ODC Activity ([1]; retinoid dose 17 nmol + TPA, second table, acetone + TPA control 1.67): 0.14 ± 0.04 nmol CO2 /60 min/mg protein

SMILES: CCOC(=O)/C=C(C)/C=C/C=C(\C)c1ccc2c(c1)C(C)(C)CCS2 [(39), Ethyl 7-[4,4-Dimethylthiochroman-6-yl]-3,7-dimethyl-2,4,6-heptatrienoate]
- activity in the ODC assay in words [1, 9]: strongest activity; also recorded: more active
- ODC Activity [1, 8]: 0.0 ± 0.0 nmol CO2 /30 min/mg protein

- activity in the ODC assay in words [1, 6]: less active compared to the same control
SMILES: CC(/C=C/C=C(\C)c1ccc2c(c1)C(C)(C)CCS2)=C\C(=O)OCCN1C(=O)c2ccccc2C1=O [(40), (2-Phthalimide-ethyl) 7-[4,4-Dimethylthiochroman-6-yl]-3-7-dimethyl-2,4,6-heptatrienoate]
- % of Inhibition as Compared to Control ([1]; retinoid dose 34 nmol + TPA): 42%
- ODC Activity [1, 5]: 0.97 ± 0.13 nmol CO2 /60 min/mg protein

SMILES: CC1=C(/C=C/C(C)=C/C=C/C(C)=C/C(=O)O)C(C)(C)CCC1 [trans-retinoic acid]
- EC50 [2]: 41 nM
- IC50 ([3]; 96 h): 30 µg/mL (≈ 99.9 µM)
- ED50 Values [3]: NDT

SMILES: COc1cccc2c1C(=O)c1c(O)c3c(c(O)c1C2=O)C[C@@](O)(C(=O)CO)C[C@@H]3O[C@H]1C[C@H](N)[C@H](O)[C@H](C)O1 [Doxyrubicin]
- ED50 Values ([4]; 5760 min): 0.6 µg/mL (≈ 1.1 µM)
- IC50 ([4]; Homo sapiens, HT-29, 96 h, read-out: ED50 Values): 0.3 µg/mL (≈ 0.552 µM)
- IC50 ([3]; RPMI-7951, 96 h): 0.2 µg/mL (≈ 0.368 µM)
- ED50 Values ([3]; 5760 min): 0.1 µg/mL (≈ 0.184 µM)

- EC50 [2, 7]: 72 nM
SMILES: CC(/C=C/C=C(\C)c1ccc2c(c1)C(C)(C)CCS2)=C\C(=O)O [(38), 7-[4.4-Dimethylthiochroman-6-yl]-3,7-dimethyl-2,4,6-heptatrienoic acid]
- activity in the ODC assay in words [1, 9]: essentially equivalent in activity to the standard
- ODC Activity [1, 8]: 0.1 ± 0.01 nmol CO2 /30 min/mg protein

Reference: US4977276A, “Heteroarotinoids as anticancer agents” (The Board of Regents for the Oklahoma Agricultural and …, priority 1989, dated 1990)
